Source: the supplement of paper PMC10307832

How the values were obtained:
Experiment in all cases: relative viability (nuclei count vs DMSO), 5 days (fraction); higher = more cells survive
VX-702 + Pictilisib = compound: NC(=O)c1ccc(N(C(N)=O)c2c(F)cccc2F)nc1-c1ccc(F)cc1F [VX-702] + CS(=O)(=O)N1CCN(Cc2cc3nc(-c4cccc5[nH]ncc45)nc(N4CCOCC4)c3s2)CC1 [Pictilisib] (partner 1 µM)
Summary of the method: (§1)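 For relative viability, nuclei counts in treated wells were divided by those in vehicle wells. Lung cancer cell lines had been pin-tool dosed in 1536-well plates the day after seeding and cultured for 5 days, then fixed and stained in one step (final 0.05% Triton X-100, 1% formaldehyde, 1 ug/ml Hoechst) and imaged at 4×. Doses were one drug alone or a fixed anchor-drug dose plus five library-drug doses (not always all listed) in √10 steps, and values are duplicate-plate medians.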

Dabrafenib + Crizotinib = compound: CC(C)(C)c1nc(-c2cccc(NS(=O)(=O)c3c(F)cccc3F)c2F)c(-c2ccnc(N)n2)s1 [Dabrafenib] + C[C@@H](Oc1cc(-c2cnn(C3CCNCC3)c2)cnc1N)c1c(Cl)ccc(F)c1Cl [Crizotinib] (partner 1 µM)
Summary of the method: as §1

Dabrafenib + Foretinib = compound: CC(C)(C)c1nc(-c2cccc(NS(=O)(=O)c3c(F)cccc3F)c2F)c(-c2ccnc(N)n2)s1 [Dabrafenib] + COc1cc2c(Oc3ccc(NC(=O)C4(C(=O)Nc5ccc(F)cc5)CC4)cc3F)ccnc2cc1OCCCN1CCOCC1 [Foretinib] (partner 0.25 µM)
Summary of the method: as §1

Dabrafenib + Linsitinib = compound: CC(C)(C)c1nc(-c2cccc(NS(=O)(=O)c3c(F)cccc3F)c2F)c(-c2ccnc(N)n2)s1 [Dabrafenib] + C[C@]1(O)C[C@@H](c2nc(-c3ccc4ccc(-c5ccccc5)nc4c3)c3c(N)nccn32)C1 [Linsitinib] (partner 1 µM)
Summary of the method: as §1

Cell Line	relative viability (VX-702 + Pictilisib; first compound 0.02 µM)	relative viability (VX-702 + Pictilisib; first compound 0.2 µM)	relative viability (VX-702 + Pictilisib; first compound 0.6325 µM)	relative viability (VX-702 + Pictilisib; first compound 2 µM)	relative viability (Dabrafenib + Crizotinib; first compound 0.009487 µM)	relative viability (Dabrafenib + Crizotinib; first compound 0.03 µM)	relative viability (Dabrafenib + Crizotinib; first compound 0.09487 µM)	relative viability (Dabrafenib + Crizotinib; first compound 0.3 µM)	relative viability (Dabrafenib + Foretinib; first compound 0.009487 µM)	relative viability (Dabrafenib + Foretinib; first compound 0.03 µM)	relative viability (Dabrafenib + Foretinib; first compound 0.09487 µM)	relative viability (Dabrafenib + Foretinib; first compound 0.3 µM)	relative viability (Dabrafenib + Linsitinib; first compound 0.009487 µM)	relative viability (Dabrafenib + Linsitinib; first compound 0.03 µM)	relative viability (Dabrafenib + Linsitinib; first compound 0.09487 µM)	relative viability (Dabrafenib + Linsitinib; first compound 0.3 µM)	relative viability (Dabrafenib + Foretinib; first compound 0.003 µM)	relative viability (Dabrafenib + Crizotinib; first compound 0.003 µM)	relative viability (Dabrafenib + Linsitinib; first compound 0.003 µM)
HCC-78	0.224	0.17	0.176	0.237	0.403	0.278	0.329	0.362	0.633	0.537	0.632	0.581	0.694	0.442	0.45	0.628			
HCC-366	0.132	0.148	0.154	0.113	0.542	0.436	0.44	0.572	0.944	0.812	0.875	0.891	0.787	0.0905	0.549	0.892	0.894		
HCC-827	0.856	0.701	0.99	0.355	0.945	0.864	0.696	0.942	1.04	0.876		1.03	0.964	0.96	0.998	0.974	1.11	0.873	0.905
HOP-62	0.852	0.652	0.597	0.683	0.807	1.05	0.913	0.805	1.1	1.16	0.969	1.12	1.07	0.804	0.831	0.977	1.12		
IA-LM	0.298	0.324	0.265	0.352	0.756	0.702	0.628	0.46	1.08	1.08	0.977	1.13	0.575	0.547	0.283	0.424	1.13	1.01	0.443
LC-2-ad	0.472	0.45	0.446	0.433	0.398	0.389	0.426	0.447	1.09	0.82	0.922	1.1	0.768	0.802	0.764	0.851		0.42	0.93
LCLC-97TM1	0.148	0.21	0.121	0.192	0.325	0.406		0.287	0.99	0.972	0.864	0.953	0.18	0.187		0.192	0.938		
LCLC-103H	0.638	0.621	0.666	0.613	1.13	0.935	1.17	1.06	0.791	0.737	0.804	0.849	1.08	0.84	1.13	1.09	0.762	1	1.04
LK-2	0.457		0.385	0.594	0.223		0.254	0.197	1.17		1.28	1.26	0.875	0.225	0.381	0.53	1.14	0.211	0.587
LOU-NH91	0.545	0.489	0.491	0.53	0.759	0.717	0.672	0.757	1.01	0.894	0.918	0.958	1.15	0.93	0.91	0.944	0.858		
LU99A	0.316	0.297	0.292	0.318	0.525	0.466	0.562	0.484	0.702	0.715	0.756	0.79	0.532	0.484	0.476	0.476	0.942	0.585	0.542
LXF-289	0.85	0.785	0.818	0.784	0.833	0.892	0.804	0.883	1.03	0.993	0.931	1.01	0.976	1.04	0.954	1.08	1.01	0.802	0.992
NCI-H23	0.506	0.424	0.464	0.652	0.603	0.541	0.421	0.495	1.04	0.906	0.878	0.873	0.67	0.553	0.645	0.547			
NCI-H322M	0.543	0.528	0.483	0.521	1.09		0.876	0.941	1.19	0.75	0.879	0.945	1.02		0.874	0.895			
NCI-H1395	0.572	0.595	0.607	0.662					0.892	1.09	0.874	0.82	1.07	1.05	1.07	0.854	0.997		
NCI-H1623									0.869	0.846	0.829	1.12							
NCI-H1650	0.641	0.326	0.596	0.586	1.21	0.907	0.995	1.11	1.3	0.895	1.45	1.71					1.03	1.04	
NCI-H1792	0.228	0.222	0.22	0.247	0.974	0.891	0.833	0.873					0.599	0.485	0.528	0.394			
NCI-H1793	0.311	0.262	0.389	0.252					0.93			0.598	1.53	0.702	0.781	0.914			0.832
NCI-H2170	0.339	0.317	0.324	0.283	1.24	0.96	1.02	1.27	0.539	0.961	1.01	1.11					1.03	1.28	
NCI-H2342									1.18	0.954	1.09	1.2					1.04		
